Assay results taken from patent US20150050210A1 (priority 2012, published 2015).
Where two headings read alike, the source gives them in different places.

Tests used:
[1] = Temperature stability studies of bendamustine; format: physicochemical
Protocol: Temperature stability studies of bendamustine were conducted with treatment of bendamustine at given temperatures for 10 minutes.

[2] = Compatibility studies of bendamustine with excipients (1:1 binary mixtures); format: physicochemical; settings: for Total impurities %: open container, one month
Protocol: Compatibility studies of bendamustine with different excipients used in hot melt extrusion process were realised with incubation of 1:1 (w/w) binary mixtures of these excipients with bendamustine at 40° C. 75% RH in an open container for one month.

[3] = Rat studies to determine oral bioavailability of bendamustine; settings: male, Sprague-Dawley, in vivo; for AUC(0-inf): read-out: mean AUC0-∞
Protocol: Rat studies were carried out with the extrudate to determine the oral bioavailability of bendamustine. For this purpose 3 mg/kg bendamustine was applied parenterally to 3 animals and samples were taken at 0, 0.083, 0.25, 0.5, 1, 2, 4, 8 hours and analyzed with a validated HPLC/MS method. Furthermore extrudates of the invention were applied orally to 9 rats with a bendamustine concentration of 10.8 mg/kg. Samples were taken at 0, 0.25, 0.5, 1, 2, 4, 6, 8 hours and analyzed with a validated HPLC/MS method

[4] = mice; cited from earlier work

Cn1c(CCCC(=O)O)nc2cc(N(CCCl)CCCl)ccc21 [bendamustine, 4-[5-[Bis(2-chloroethyl)amino]-1-methylbenzimidazol-2-yl]butanoic acid]
Assay % ([1]; 70 ° C. for 10 minutes): 101.75%
Total Impurity % ([1]; 70 ° C. for 10 minutes): 0.7%
Assay % ([1]; 100 ° C. for 10 minutes): 99.216%
Total Impurity % ([1]; 100 ° C. for 10 minutes): 0.8%
Assay % ([1]; 120 ° C. for 10 minutes): 97.732%
Total Impurity % ([1]; 120 ° C. for 10 minutes): 1.3%
Total impurities % ([2]; 1:1 (w/w) mixture with Ascorbic acid, 40° C. 75% RH): 0.121%
Total impurities % ([2]; 1:1 (w/w) mixture with Citric acid, 40° C. 75% RH): 0.098%
Total impurities % ([2]; 1:1 (w/w) mixture with Ditert butyl methyl phenol, 40° C. 75% RH): 0.258%
Total impurities % ([2]; 1:1 (w/w) mixture with Eudragit ® EPO, 40° C. 75% RH): 0.154%
Total impurities % ([2]; 1:1 (w/w) mixture with Kollidone VA64, 40° C. 75% RH): 0.091%
Total impurities % ([2]; 1:1 (w/w) mixture with PEG 1000, 40° C. 75% RH): 0.326%
Total impurities % ([2]; 1:1 (w/w) mixture with PEG 2000, 40° C. 75% RH): 0.229%
Total impurities % ([2]; 1:1 (w/w) mixture with Plasdone K12, 40° C. 75% RH): 0.124%
Total impurities % ([2]; 1:1 (w/w) mixture with Soluplus, 40° C. 75% RH): 0.118%
Total impurities % ([2]; 1:1 (w/w) mixture with Vit E acetate, 40° C. 75% RH): 0.101%
Compatibility with excipients ([2]; with large amounts of PEG 2000, PEG 1000 and Diter butyl methyl phenol, 40° C. 75% RH): incompatibility
bioavailability ([3]; iv, 3 mg/kg): 100%
AUC(0-inf) ([3]; iv, 3 mg/kg): 675 ng·h/mL
bioavailability ([3]; po, 10 mg/kg): 33%
AUC(0-inf) ([3]; po, 10 mg/kg): 742 ng·h/mL
oral bioavailability [4]: 40%
